Experimental data from patent US10576097B2, “URLC10-derived peptide and vaccine containing same” (ONCOTHERAPY SCIENCE, INC., priority 2014, dated 2020).

Columns and labels:
Type in all cases: cell-based, human
peptide-pulsed C1R-A03 = test: In vitro CTL induction, IFN-gamma ELISPOT assay (HLA-A*0301); conditions: CTLs induced from HLA-A*0301-positive donors, against peptide-pulsed C1R-A03, compared with control
From the text: (§1) Monocyte-derived dendritic cells (DCs) were used as the antigen-presenting cell to induce a cytotoxic T lymphocyte (CTL) response against peptides presented on human leukocyte antigens (HLAs). As described in the other sections, DCs were generated in vitro (Nakahara S et al., Cancer Res 2003, 63(14): 4112-8). Specifically, peripheral-blood mononuclear cells isolated from healthy volunteers (HLA-A*0301-positive) with the Ficoll-Paque plus solution (Pharmacia) were separated by attaching to plastic tissue culture dishes (Becton Dickinson) and concentrated as a monocyte fraction. The monocyte-concentrated population was cultured in the presence of 1000 IU/ml granulocyte macrophage colony-stimulating factor (R&D System) and 1000 IU/ml interleukin(IL)-4 (R&D System) in an AIM-V medium (Invitrogen) containing 2% heat-inactivated autologous serum (AS). After seven days of culturing, the cytokine-induced DCs were pulsed with 20 micro-g/ml each of the synthesized peptides in an AIM-V medium at 37 degrees C. for three hours in the presence of 3 micro-g/ml beta 2-microglobulin. The generated cells appeared to express on their cell surface DC-associated molecules such as CD80, CD83, CD86 and HLA class II (data not shown). Next, these peptide-pulsed DCs were inactivated by X-ray irradiation (20 Gy), and mixed in a 1:20 ratio with autologous CD8^+ T cells obtained by positive selection using the CD8 Positive Isolation Kit (Dynal). These culture products were seeded in a 48-well plate (Corning). Each well was made to contain 1.5×10^4 peptide-pulsed DCs, 3×10^5 CD8^+ T cells and 10 ng/ml IL-7 (R&D System) in 0.5 ml of the AIM-V/2% AS medium. Three days later, these culture products were added with a final concentration of 20 IU/ml IL-2 (CHIRON). On day 7 and day 14, T cells were further stimulated with peptide-pulsed autologous DCs. The DCs were prepared every time by the same method as above. On day 21, after the third peptide stimulation, CTLs were examined against the peptide-pulsed C1R-A03 by a human interferon (IFN)-gamma enzyme-linked immunospot (ELISPOT) assay (Tanaka H et al., Br J Cancer 2001, 84(1): 94-9; Umano Y et al., Br J Cancer 2001, 84(8): 1052-7; Uchida N et al., Clin Cancer Res 2004, 10(24): 8577-86; Suda T et al., Cancer Sci 2006, 97(5): 411-9; Watanabe T et al., Cancer Sci 2005, 96(8): 498-506).
(§2) To examine specific CTL activity, an IFN-gamma ELISPOT assay and an IFN-gamma enzyme-linked immunosorbent assay (ELISA) were performed. Specifically, peptide-pulsed C1R-A03 (1×10^4 cells/well) was prepared as the stimulator cell. The induced CTLs, i.e., CTL lines and CTL clones, were used as the responder cell. The IFN-gamma ELISPOT assay and IFN-gamma ELISA were performed according to the manufacturer's manual.

peptide-pulsed C1R-A11 = test: In vitro CTL induction, IFN-gamma ELISPOT assay (HLA-A*1101); conditions: CTLs induced from HLA-A*1101-positive donors, against peptide-pulsed C1R-A11, compared with control
From the text: as §1, with “(HLA-A*1101-positive)” for “(HLA-A*0301-positive)”, “C1R-A11” for “C1R-A03”
as §2, with “C1R-A11” for “C1R-A03”

[1] = test system: C1R-A03 cells pulsed with the respective peptide; test: IFN-gamma ELISA of CTL lines and CTL clones (HLA-A*0301)
Method: CTLs were propagated in culture using methods similar to those disclosed by Riddell et al. (Walter E A et al., N Engl J Med 1995, 333(16): 1038-44; Riddell S R et al., Nat Med 1996, 2(2): 216-23). The CTLs were co-cultured in a total of 25 ml AIM-V medium containing 5% AS (AIM-V/5% AS) and 40 ng/ml anti-CD3 antibody with two types of Mitomycin C-treated human B lymphoblastoid cell lines at 5×10^6 cells/flask. One day after beginning of the culturing, 120 IU/ml IL-2 was added to the culture. On days 5, 8 and 11, a fresh AIM-V/5% AS medium containing 30 IU/ml IL-2 was added to the culture (Tanaka H et al., Br J Cancer 2001, 84(1): 94-9; Umano Y et al., Br J Cancer 2001, 84(8): 1052-7; Uchida N et al., Clin Cancer Res 2004, 10(24): 8577-86; Suda T et al., Cancer Sci 2006, 97(5): 411-9; Watanabe T et al., Cancer Sci 2005, 96(8): 498-506).
Dilution of CTLs was carried out to make 1 and 10 cells/well in 96 round-bottomed microtiter plates (Nalge Nunc International). The CTLs were co-cultured with two types of Mitomycin C-treated human B lymphoblastoid cell lines at 1×10^4 cells/well in a total of 150 micro-l/well 5% AS-containing AIM-V (AIM-V/5% AS) medium with 30 ng/ml anti-CD3 antibody and 125 IU/ml IL-2. Ten days later, IL-2 was added to the medium at 50 micro-l/well to reach a final concentration of 125 IU/ml. On day 14, the CTL activity was tested, and the CTL clones were propagated using the same method as described above (Uchida N et al., Clin Cancer Res 2004, 10(24): 8577-86; Suda T et al., Cancer Sci 2006, 97(5): 411-9; Watanabe T et al., Cancer Sci 2005, 96(8): 498-506).
as §2

| Sequence | peptide-specific CTL activity (IFN-gamma production) (peptide-pulsed C1R-A03) | further results |
| --- | --- | --- |
| GPPINSSVFK (a peptide derived from URLC10) [SEQ ID NO 17, URLC10-derived 10mer peptide, start position 183] | potent IFN-gamma production | – |
| VIAAVKIFPR (a peptide derived from URLC10) [SEQ ID NO 14, URLC10-derived 10mer peptide, start position 126] | potent IFN-gamma production | – |
| AMERPKPEEK (a peptide derived from URLC10) [SEQ ID NO 16, URLC10-derived 10mer peptide, start position 149] | potent IFN-gamma production | – |
| LLEEPMPFFY (a peptide derived from URLC10) [SEQ ID NO 18, URLC10-derived 10mer peptide, start position 161] | potent IFN-gamma production | – |
| ALLLVVALPR (a peptide derived from URLC10) [SEQ ID NO 12, URLC10-derived 10mer peptide, start position 63] | potent IFN-gamma production | peptide-specific CTL activity (IFN-gamma production) (peptide-pulsed C1R-A11): specific IFN-gamma production was not observed |
| IAAVKIFPR (a peptide derived from URLC10) [SEQ ID NO 3, URLC10-derived 9mer peptide, start position 127] | potent IFN-gamma production | – |
| MPFFYLKCCK (a peptide derived from URLC10) [SEQ ID NO 22, URLC10-derived 10mer peptide, start position 166] | potent IFN-gamma production | IFN-gamma production of CTL clone ([1]; CTL clone by limiting dilution, against peptide-pulsed C1R-A03 cells): Potent IFN-gamma production; IFN-gamma production of CTL line ([1]; CTL line against peptide-pulsed versus non-pulsed target cells): potent IFN-gamma production |
| RVWCHVCER (a peptide derived from URLC10) [SEQ ID NO 1, URLC10-derived 9mer peptide, start position 98] | potent IFN-gamma production | peptide-specific CTL activity (IFN-gamma production) (peptide-pulsed C1R-A11): potent IFN-gamma production |
| RGGRGSPYR (a peptide derived from URLC10) [SEQ ID NO 9, URLC10-derived 9mer peptide, start position 18] | – | peptide-specific CTL activity (IFN-gamma production) (peptide-pulsed C1R-A11): potent IFN-gamma production |
| RQAPAGGRR (a peptide derived from URLC10) [SEQ ID NO 8, URLC10-derived 9mer peptide, start position 7] | specific IFN-gamma production was not observed | – |
| GLWLAILLLL (a peptide derived from URLC10) [SEQ ID NO 27, URLC10-derived 10mer peptide, start position 204] | potent IFN-gamma production | – |
| KIFPRFFMV (a peptide derived from URLC10) [SEQ ID NO 6, URLC10-derived 9mer peptide, start position 131] | potent IFN-gamma production | – |
| CSAGCAAMER (a peptide derived from URLC10) [SEQ ID NO 15, URLC10-derived 10mer peptide, start position 143] | potent IFN-gamma production | – |
| LLLVVALPR (a peptide derived from URLC10) [SEQ ID NO 5, URLC10-derived 9mer peptide, start position 64] | potent IFN-gamma production | – |
| ILLLLASIAA (a peptide derived from URLC10) [SEQ ID NO 30, URLC10-derived 10mer peptide, start position 209] | potent IFN-gamma production | – |
